Test results as given in US20230278972A1, “SUBSTITUTED HALOALKYL SULFONANILIDE HERBICIDES” (FMC Corporation, priority 2020, published 2023).

Tests used:
Format in all cases: in vivo
[1] = test system: Foxtail, Giant (giant foxtail, Setaria faberi); test: Test A postemergence, Foxtail, Giant; details: Postemergence, 0 to 100 scale (0 no effect, 100 complete control)
Procedure, shortened: (§1)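 Directed soil spray at planting gave the preemergence treatment, while foliar application to one- to two-leaf seedlings (2–10 cm) gave the postemergence one; pots held a loam and sand mixture and chemicals were carried in a non-phytotoxic solvent with surfactant.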

[2] = test system: barnyardgrass (Echinochloa crus-galli); test: Test A preemergence, barnyardgrass; details: Preemergence; for Barnyardgrass plant response rating: 125 g ai/ha, visual injury on 0 to 100 scale (0 no effect, 100 complete control), approximately 10 days; for Plant response rating, Barnyardgrass: 0 to 100 scale (0 no effect, 100 complete control)
Procedure, shortened: as §1

corn (Zea mays) = test: Test A postemergence, corn; details: Postemergence, 0 to 100 scale (0 no effect, 100 complete control)
Procedure, shortened: as §1

[3] = test system: pigweed (Amaranthus retroflexus); test: Test A postemergence, pigweed; details: Postemergence, 0 to 100 scale (0 no effect, 100 complete control)
Procedure, shortened: as §1

[4] = test system: Ryegrass, Italian (Italian ryegrass, Lolium multiflorum); test: Test A preemergence, Ryegrass, Italian; details: Preemergence; for Ryegrass, Italian plant response rating: 125 g ai/ha, visual injury on 0 to 100 scale (0 no effect, 100 complete control), approximately 10 days; for Plant response rating, Ryegrass, Italian: 0 to 100 scale (0 no effect, 100 complete control)
Procedure, shortened: as §1

[5] = test system: blackgrass (Alopecurus myosuroides); test: Test A postemergence, blackgrass; details: Postemergence, 0 to 100 scale (0 no effect, 100 complete control)
Procedure, shortened: as §1

[6] = test system: Foxtail, Giant (giant foxtail, Setaria faberi); test: Test A preemergence, Foxtail, Giant; details: Preemergence; for Foxtail, Giant plant response rating: 125 g ai/ha, visual injury on 0 to 100 scale (0 no effect, 100 complete control), approximately 10 days; for Plant response rating, Foxtail, Giant: 0 to 100 scale (0 no effect, 100 complete control)
Procedure, shortened: as §1

[7] = test system: Ryegrass, Italian (Italian ryegrass, Lolium multiflorum); test: Test A postemergence, Ryegrass, Italian; details: Postemergence, 0 to 100 scale (0 no effect, 100 complete control)
Procedure, shortened: as §1

[8] = test system: ragweed (common ragweed, Ambrosia artemisiifolia); test: Test A postemergence, ragweed; details: Postemergence, 0 to 100 scale (0 no effect, 100 complete control)
Procedure, shortened: as §1

[9] = test system: pigweed (Amaranthus retroflexus); test: Test A preemergence, pigweed; details: for Pigweed plant response rating: 125 g ai/ha, visual injury on 0 to 100 scale (0 no effect, 100 complete control), approximately 10 days; for Plant response rating, Pigweed: 0 to 100 scale (0 no effect, 100 complete control)
Procedure, shortened: (§2)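 Test chemicals, formulated in a non-phytotoxic solvent mixture with surfactant, were sprayed postemergence on plants 2 to 10 cm tall at the one- to two-leaf stage. Preemergence treatment was a directed soil spray onto freshly seeded pots. Both used a loam soil and sand blend.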

[10] = test system: wheat (Triticum aestivum); test: Test A postemergence, wheat; details: Postemergence, 0 to 100 scale (0 no effect, 100 complete control)
Procedure, shortened: as §2

kochia (Bassia scoparia) [11] = test: Test A preemergence, kochia; details: Preemergence; for Kochia plant response rating: 125 g ai/ha, visual injury on 0 to 100 scale (0 no effect, 100 complete control), approximately 10 days; for Plant response rating, Kochia: 0 to 100 scale (0 no effect, 100 complete control)
Procedure, shortened: as §1

[12] = test system: barnyardgrass (Echinochloa crus-galli); test: Test A postemergence, barnyardgrass; details: Postemergence, 0 to 100 scale (0 no effect, 100 complete control)
Procedure, shortened: as §2

kochia (Bassia scoparia) [13] = test: Test A postemergence, kochia; details: Postemergence, 0 to 100 scale (0 no effect, 100 complete control)
Procedure, shortened: as §1

[14] = test system: galium (catchweed bedstraw, Galium aparine); test: Test A postemergence, galium; details: Postemergence, 0 to 100 scale (0 no effect, 100 complete control)
Procedure, shortened: as §2

[15] = test system: ragweed (common ragweed, Ambrosia artemisiifolia); test: Test A preemergence, ragweed; details: Preemergence; for Ragweed plant response rating: 125 g ai/ha, visual injury on 0 to 100 scale (0 no effect, 100 complete control), approximately 10 days; for Plant response rating, Ragweed: 0 to 100 scale (0 no effect, 100 complete control)
Procedure, shortened: as §1

[16] = 125 g ai/ha, visual injury approx. 10 days
[17] = 500 g ai/ha, visual injury, approx. 10 days
[18] = 31 g ai/ha, visual injury, approx. 10 days

SMILES | Plant response rating, Foxtail, Giant [1, 16] | Plant response rating, Foxtail, Giant [1, 17] | Barnyardgrass plant response rating [2] | Plant response rating, Barnyardgrass ([2]; 500 g ai/ha) | Plant response rating, Corn (corn (Zea mays); [16]) | Plant response rating, Corn (corn (Zea mays); [17]) | Plant response rating, Pigweed [3, 16] | Plant response rating, Pigweed [3, 17] | Ryegrass, Italian plant response rating [4] | Plant response rating, Blackgrass [5, 16] | Foxtail, Giant plant response rating [6] | Plant response rating, Ryegrass, Italian [7, 16] | Plant response rating, Ragweed [8, 16] | Pigweed plant response rating [9] | Plant response rating, Wheat [10, 16] | Kochia plant response rating (kochia (Bassia scoparia) [11]) | Plant response rating, Barnyardgrass [12, 16] | Plant response rating, Kochia (kochia (Bassia scoparia) [13]; [16]) | Plant response rating, Galium [14, 16] | Ragweed plant response rating [15] | further results
CCn1cc(-c2cc(NS(=O)(=O)C(F)(F)F)c(C)cc2C)c(=O)n(C)c1=O [Compound 32] | 90 | 90 | 100 | 100 | 10 | 80 | 10 | 20 | 100 | 90 | 100 | 80 | 30 | 20 | 70 | 60 | 90 | 20 | 70 | 0 | Plant response rating, Ryegrass, Italian ([4]; 500 g ai/ha): 100; Plant response rating, Blackgrass [5, 17]: 90; Plant response rating, Foxtail, Giant ([6]; 500 g ai/ha): 100; Plant response rating, Ryegrass, Italian [7, 17]: 90; Plant response rating, Ragweed [8, 17]: 60; Plant response rating, Pigweed ([9]; 500 g ai/ha): 60; Plant response rating, Wheat [10, 17]: 70; Plant response rating, Kochia (kochia (Bassia scoparia) [11]; 500 g ai/ha): 90; Plant response rating, Barnyardgrass [12, 17]: 90; Plant response rating, Kochia (kochia (Bassia scoparia) [13]; [17]): 40; Plant response rating, Galium [14, 17]: 90; Plant response rating, Ragweed ([15]; 500 g ai/ha): 50
COc1cc(-c2cc(N(S(=O)(=O)C(F)(F)F)S(=O)(=O)C(F)(F)F)c(C)cc2C)c(=O)n(C)n1 [Compound 35] | 0 | 10 | 70 | 90 | 0 | 0 | 30 | 60 | 40 | 20 | 60 | 0 | 0 | 50 | 0 | 0 | 0 | 0 | 60 | 20 | Plant response rating, Ryegrass, Italian ([4]; 500 g ai/ha): 50; Plant response rating, Blackgrass [5, 17]: 30; Plant response rating, Foxtail, Giant ([6]; 500 g ai/ha): 90; Plant response rating, Ryegrass, Italian [7, 17]: 40; Plant response rating, Ragweed [8, 17]: 40; Plant response rating, Pigweed ([9]; 500 g ai/ha): 80; Plant response rating, Wheat [10, 17]: 40; Plant response rating, Kochia (kochia (Bassia scoparia) [11]; 500 g ai/ha): 20; Plant response rating, Barnyardgrass [12, 17]: 80; Plant response rating, Kochia (kochia (Bassia scoparia) [13]; [17]): 10; Plant response rating, Galium [14, 17]: 70; Plant response rating, Ragweed ([15]; 500 g ai/ha): 80
CSc1cc(-c2cc(NS(=O)(=O)C(F)(F)F)c(C)cc2C)c(=O)n(C)n1 [Compound 36] | 0 | – | 50 | – | 0 | – | 30 | – | 60 | 0 | 80 | 10 | 0 | 10 | 50 | 0 | 0 | 20 | 40 | 0 | Plant response rating, Foxtail, Giant ([1]; 31 g ai/ha): 0; Plant response rating, Barnyardgrass [2, 18]: 0; Plant response rating, Corn (corn (Zea mays); 31 g ai/ha): 0; Plant response rating, Pigweed ([3]; 31 g ai/ha): 0; Plant response rating, Ryegrass, Italian [4, 18]: 0; Plant response rating, Blackgrass ([5]; 31 g ai/ha): 0; Plant response rating, Foxtail, Giant [6, 18]: 20; Plant response rating, Ryegrass, Italian ([7]; 31 g ai/ha): 20; Plant response rating, Ragweed ([8]; 31 g ai/ha): 0; Plant response rating, Pigweed [9, 18]: 0; Plant response rating, Wheat ([10]; 31 g ai/ha): 0; Plant response rating, Kochia (kochia (Bassia scoparia) [11]; [18]): 0; Plant response rating, Barnyardgrass ([12]; 31 g ai/ha): 0; Plant response rating, Kochia (kochia (Bassia scoparia) [13]; 31 g ai/ha): 10; Plant response rating, Galium ([14]; 31 g ai/ha): 20; Plant response rating, Ragweed [15, 18]: 0
CCn1c(=O)c(-c2cc(NS(=O)(=O)C(F)(F)F)c(C)cc2C)cn(C)c1=O [Compound 37] | 90 | 90 | 90 | 90 | 20 | 80 | 50 | 50 | 100 | 80 | 100 | 90 | 30 | 50 | 80 | 80 | 90 | 60 | 90 | 40 | Plant response rating, Ryegrass, Italian ([4]; 500 g ai/ha): 100; Plant response rating, Blackgrass [5, 17]: 90; Plant response rating, Foxtail, Giant ([6]; 500 g ai/ha): 100; Plant response rating, Ryegrass, Italian [7, 17]: 90; Plant response rating, Ragweed [8, 17]: 70; Plant response rating, Pigweed ([9]; 500 g ai/ha): 90; Plant response rating, Wheat [10, 17]: 80; Plant response rating, Kochia (kochia (Bassia scoparia) [11]; 500 g ai/ha): 90; Plant response rating, Barnyardgrass [12, 17]: 90; Plant response rating, Kochia (kochia (Bassia scoparia) [13]; [17]): 70; Plant response rating, Galium [14, 17]: 100; Plant response rating, Ragweed ([15]; 500 g ai/ha): 80
Cc1cc(Cl)c(N(S(=O)(=O)C(F)(F)F)S(=O)(=O)C(F)(F)F)cc1-c1cn(C)c(=O)n(C)c1=O [Compound 38] | 90 | 90 | 90 | 100 | 20 | 70 | 70 | 90 | 100 | 80 | 100 | 60 | 80 | 40 | 70 | 80 | 60 | 60 | 80 | 70 | Plant response rating, Ryegrass, Italian ([4]; 500 g ai/ha): 100; Plant response rating, Blackgrass [5, 17]: 90; Plant response rating, Foxtail, Giant ([6]; 500 g ai/ha): 100; Plant response rating, Ryegrass, Italian [7, 17]: 80; Plant response rating, Ragweed [8, 17]: 90; Plant response rating, Pigweed ([9]; 500 g ai/ha): 80; Plant response rating, Wheat [10, 17]: 70; Plant response rating, Kochia (kochia (Bassia scoparia) [11]; 500 g ai/ha): 90; Plant response rating, Barnyardgrass [12, 17]: 80; Plant response rating, Kochia (kochia (Bassia scoparia) [13]; [17]): 70; Plant response rating, Galium [14, 17]: 90; Plant response rating, Ragweed ([15]; 500 g ai/ha): 90
